How the values were obtained:
Format in all cases: cell-based
Conditions in all cases: 37° C.
[1] = test system: E. coli strain TG1 (pYEDA1); test: Growth of E. coli TG1 (pYEDA1) on M9 glucose minimal agar containing amino acids and amino acid analogs
Protocol: (§1) The pYEDA1 and pYEDA2 plasmids and the pUC19 and pAYCTER3 vectors were introduced into E. coli strain TG1. Thus the strains TG1 (pYEDA1), TG1 (pYEDA2), TG1 (pUC19) and TG1 (pAYCTER3) were obtained.
(§2) Then the ability of these strains to grow in the presence of amino acids and amino acid analogues for each strain were determined on M9 glucose minimal agar plates containing graded concentrations of inhibitor. The plates were spotted with 10^6 to 10^7 cells from an overnight culture grown in a minimal medium (supplemented with 100 μg/ml of ampicillin for plasmid strains). The growth was estimated after 44 h incubation at 37° C.

[2] = test system: E. coli strain TG1 (pUC19); test: Growth of E. coli TG1 (pUC19) on M9 glucose minimal agar containing amino acids and amino acid analogs
Protocol: as §1, §2

[3] = test system: E. coli strain TG1 (pYEDA2); test: Growth of E. coli TG1 (pYEDA2) on M9 glucose minimal agar containing amino acids and amino acid analogs
Protocol: as §1, §2
Also: key: +: good growth; −: no growth.

For `C[C@@H](O)[C@H](N)C(=O)O` [L-threonine], the “Growth after 44 h TG1 (pYEDA1)” value ([1]; substrate 50.0 mg/ml) was “+” and the “Growth after 44 h TG1 (pUC19)” value ([2]; substrate 50.0 mg/ml) was “−”.
For `NC(Cc1c[nH]c2ccc(F)cc12)C(=O)O` (racemic) [5-fluoro-DL-tryptophane], the “Growth after 44 h TG1 (pYEDA1)” value ([1]; substrate 0.0005 mg/ml) was “+” and the “Growth after 44 h TG1 (pUC19)” value ([2]; substrate 0.0005 mg/ml) was “−”.
`CN(C)CC(N)C(=O)O` (racemic) [4-aza-DL-leucine] was tested, and the “Growth after 44 h TG1 (pYEDA1)” value ([1]; substrate 1.0 mg/ml) was “+” and the “Growth after 44 h TG1 (pUC19)” value ([2]; substrate 1.0 mg/ml) was “−”.
In the case of `N[C@@H](CS)C(=O)O` [L-cysteine], the “Growth after 44 h TG1 (pYEDA1)” value ([1]; substrate 7.5 mg/ml) is reported as “+” and the “Growth after 44 h TG1 (pUC19)” value ([2]; substrate 7.5 mg/ml) is reported as “−”.
In the case of `N[C@@H](Cc1c[nH]cn1)C(=O)O` [L-histidine], the “Growth after 44 h TG1 (pYEDA1)” value ([1]; substrate 20.0 mg/ml) is reported as “+” and the “Growth after 44 h TG1 (pUC19)” value ([2]; substrate 20.0 mg/ml) is reported as “−”.
With `N[C@@H](CCO)C(=O)O` [L-homoserine] the “Growth after 44 h TG1 (pYEDA1)” value ([1]; substrate 3.0 mg/ml) was “+” and the “Growth after 44 h TG1 (pUC19)” value ([2]; substrate 3.0 mg/ml) was “−”.
`N[C@@H](Cc1ccccc1)C(=O)O` [L-phenylalanine] was tested, and the “Growth after 44 h TG1 (pYEDA1)” value ([1]; substrate 20.0 mg/ml) was “+”, the “Growth after 44 h TG1 (pYEDA2)” value ([3]; substrate 20.0 mg/ml) was “−” and the “Growth after 44 h TG1 (pUC19)” value ([2]; substrate 20.0 mg/ml) was “−”.
With `NC(Cc1ccc(F)cc1)C(=O)O` (racemic) [p-fluoro-DL-phenylalanine] the “Growth after 44 h TG1 (pYEDA1)” value ([1]; substrate 1.0 mg/ml) was “+”, the “Growth after 44 h TG1 (pYEDA1)” value ([1]; substrate 2.0 mg/ml) was “+” and the “Growth after 44 h TG1 (pYEDA2)” value ([3]; substrate 1.0 mg/ml) was “+”. For the same compound, the “Growth after 44 h TG1 (pYEDA2)” value ([3]; substrate 2.0 mg/ml) was “−”, the “Growth after 44 h TG1 (pUC19)” value ([2]; substrate 1.0 mg/ml) was “−” and the “Growth after 44 h TG1 (pUC19)” value ([2]; substrate 2.0 mg/ml) was “−”.
With `NCCSC[C@H](N)C(=O)O` [S(2-aminoethyl)-L-cysteine] the “Growth after 44 h TG1 (pYEDA1)” value ([1]; substrate 0.4 mg/ml) was “+”, the “Growth after 44 h TG1 (pYEDA2)” value ([3]; substrate 0.4 mg/ml) was “+” and the “Growth after 44 h TG1 (pUC19)” value ([2]; substrate 0.4 mg/ml) was “−”.

— patent US7259003B2, “Escherichia bacteria transformed with a yedA homolog to enhance L-amino acid producing activity, and methods for producing an L-amino acid using same” (priority 2001, dated 2007)
